Tests used:
[1] = target: T1, Full length human recombinant HDAC11 (Homo sapiens, UniProt Q96DB2); assay: In vitro histone deacetylase assay, enzymatic HDAC11 (electrophoretic mobility shift assay); type: biochemical; settings: 10 nM HDAC11; 2 μM peptide substrate FAM-RHKK(tri-fluor-Ac)—NH2; 25° C.; 12 concentrations; read-out: HDAC11 Activity Range (IC50)
T1 construct: Full length human recombinant HDAC6 and HDAC11 proteins were expressed in baculoviral system
T1 sequence (Q96DB2 1-347): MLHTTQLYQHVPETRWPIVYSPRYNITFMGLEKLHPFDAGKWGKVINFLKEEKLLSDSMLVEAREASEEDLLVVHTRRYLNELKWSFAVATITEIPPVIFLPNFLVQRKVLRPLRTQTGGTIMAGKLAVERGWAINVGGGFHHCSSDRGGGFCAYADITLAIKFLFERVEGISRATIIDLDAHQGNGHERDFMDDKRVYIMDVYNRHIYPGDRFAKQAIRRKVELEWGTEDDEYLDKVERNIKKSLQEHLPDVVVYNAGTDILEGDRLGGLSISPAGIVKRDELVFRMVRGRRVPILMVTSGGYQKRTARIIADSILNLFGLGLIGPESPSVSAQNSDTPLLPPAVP
Protocol: (§1) The enzymatic HDAC6 and HDAC11 assays were performed using electrophoretic mobility shift assay. Full length human recombinant HDAC6 and HDAC11 proteins were expressed in baculoviral system and purified by affinity chromatography. The enzymatic reactions were assembled in 384 well plates in a total volume of 25 μL in a reaction buffer composing: 100 mM HEPES, pH 7.5, 25 mM KCl, 0.1% bovine serum albumin, 0.01% Triton X-100, 1% DMSO (from compounds) 2 μM of the fluorescently labeled peptide substrate and enzyme. The enzymes were added at a final concentration of 1 nM for HDAC6, and 10 nM for HDAC11. The peptide substrate FAM-RHKK(Ac)—NH2 was used for HDAC6, and FAM-RHKK(tri-fluor-Ac)—NH2 for HDAC11. The compounds were tested at 12 concentrations spaced by 3× dilution intervals. Negative control samples (0%-inhibition in the absence of inhibitor) and positive control samples (100%-inhibition) were assembled in replicates of four in each assay plate. The reactions were incubated at 25° C. and quenched by the addition of 45 μL of termination buffer (100 mM HEPES, pH 7.5, 0.01% Triton X-100, 0.05% SDS).
(§2) The terminated assay plates were analyzed on LabChip® 3000 microfluidic electrophoresis instrument (Perkin Elmer/Caliper Life Sciences). The fluorescence intensity of the electrophoretically separated de-acetylated product and substrate peptide was measured. Activity in each sample was determined as the product to sum ratio (PSR): P/(S+P), where P is the peak height of the product peptide and S is the peak height of the substrate peptide. Percent inhibition (Pinh) is determined using following equation:
(§3) Pinh=(PSR0%−PSRinh)/(PSR0%−PSR100%)*100, where PSRinh is the product sum ratio in the presence of inhibitor, PSR0% is the average product sum ration in the absence of inhibitor and PSR100% is the average product sum ratio in 100%-inhibition control samples. The IC50 values of inhibitors were determined by fitting the %-inhibition curves with 4 parameter dose-response model using XLfit 4 software.
(§4) As set forth in Table-26 and Table-27, below, IC5o values are defined as follows: IC50≦0.1 μM (+++); IC50>0.1 μM and ≦0.5 μM (++); IC50>0.5 μM (+).

[2] = target: T2, Full length human recombinant HDAC6 (Homo sapiens, UniProt Q9UBN7); assay: In vitro histone deacetylase assay, enzymatic HDAC6 (electrophoretic mobility shift assay); type: biochemical; settings: 1 nM HDAC6; 2 μM peptide substrate FAM-RHKK(Ac)—NH2; 25° C.; 12 concentrations; read-out: HDAC6 Activity Range (IC50)
T2 construct: Full length human recombinant HDAC6 and HDAC11 proteins were expressed in baculoviral system
T2 sequence (Q9UBN7 1-1215): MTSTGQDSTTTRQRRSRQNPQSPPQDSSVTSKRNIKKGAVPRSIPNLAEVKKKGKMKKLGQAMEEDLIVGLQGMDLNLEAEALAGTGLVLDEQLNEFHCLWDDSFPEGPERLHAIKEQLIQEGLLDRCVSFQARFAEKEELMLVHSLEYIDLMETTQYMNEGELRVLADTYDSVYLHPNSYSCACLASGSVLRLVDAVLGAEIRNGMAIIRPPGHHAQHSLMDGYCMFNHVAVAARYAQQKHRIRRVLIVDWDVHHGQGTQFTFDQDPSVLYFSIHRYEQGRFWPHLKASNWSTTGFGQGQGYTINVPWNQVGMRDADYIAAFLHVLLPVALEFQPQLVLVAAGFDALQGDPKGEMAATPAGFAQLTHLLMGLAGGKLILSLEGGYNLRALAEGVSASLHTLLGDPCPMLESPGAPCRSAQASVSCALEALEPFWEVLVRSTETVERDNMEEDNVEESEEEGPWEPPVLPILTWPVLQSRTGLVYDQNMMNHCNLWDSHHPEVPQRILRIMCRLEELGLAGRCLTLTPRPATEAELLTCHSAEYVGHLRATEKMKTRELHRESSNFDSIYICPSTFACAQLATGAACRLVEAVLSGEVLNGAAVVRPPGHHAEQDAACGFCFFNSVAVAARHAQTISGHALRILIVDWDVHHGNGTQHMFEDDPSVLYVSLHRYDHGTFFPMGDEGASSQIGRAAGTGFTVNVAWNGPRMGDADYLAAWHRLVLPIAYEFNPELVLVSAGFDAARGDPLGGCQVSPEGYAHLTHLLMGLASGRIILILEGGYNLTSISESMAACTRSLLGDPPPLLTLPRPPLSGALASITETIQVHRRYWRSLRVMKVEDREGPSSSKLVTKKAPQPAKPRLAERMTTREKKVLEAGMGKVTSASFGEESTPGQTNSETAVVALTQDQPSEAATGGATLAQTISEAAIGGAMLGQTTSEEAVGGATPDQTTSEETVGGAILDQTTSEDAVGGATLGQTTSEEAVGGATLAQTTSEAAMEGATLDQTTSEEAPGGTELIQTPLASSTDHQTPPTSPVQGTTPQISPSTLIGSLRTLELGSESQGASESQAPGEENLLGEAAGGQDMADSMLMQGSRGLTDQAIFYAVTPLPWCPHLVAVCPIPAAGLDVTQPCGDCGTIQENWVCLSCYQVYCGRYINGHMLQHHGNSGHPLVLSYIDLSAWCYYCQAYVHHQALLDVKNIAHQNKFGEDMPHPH
Protocol: as §1, §2, §3, §4

| IC50 [1] [nM] | IC50 [2] [nM] | Structure (SMILES) |
| --- | --- | --- |
| > 500 | 100 to 500 | CN1CC[C@@]2(CCc3ccc(C(=O)NO)cc3C2)C1 [Compound I-18, (S)—N-hydroxy-1′-methyl-3,4-dihydro-1H-spiro[naphthalene-2,3′-pyrrolidine]-7-carboxamide] |
| > 500 | 100 to 500 | CN1CC[C@]2(CCc3ccc(C(=O)NO)cc3C2)C1 [Compound I-19, (R)—N-hydroxy-1′-methyl-3,4-dihydro-1H-spiro[naphthalene-2,3′-pyrrolidine]-7-carboxamide] |
| 100 to 500 | ≤ 100 | COc1ccc(CCN2CCC3(CCc4ccc(C(=O)NO)cc4C3)C2=O)cc1 (centres unmarked) [Compound I-20, N-hydroxy-1′-(4-methoxyphenethyl)-2′-oxo-3,4-dihydro-1H-spiro[naphthalene-2,3′-pyrrolidine]-7-carboxamide] |
| ≤ 100 | ≤ 100 | O=C(NO)c1ccc2c(c1)CC1(CC2)CCN(Cc2ccc(Cl)c(Cl)c2)C1=O (centres unmarked) [Compound I-21, 1′-(3,4-dichlorobenzyl)-N-hydroxy-2′-oxo-3,4-dihydro-1H-spiro[naphthalene-2,3′-pyrrolidine]-7-carboxamide] |
| > 500 | ≤ 100 | O=C(NO)c1ccc2c(c1)CC1(CC2)CCN(Cc2ccncc2)C1=O (centres unmarked) [Compound I-22, N-hydroxy-2′-oxo-1′-(pyridin-4-ylmethyl)-3,4-dihydro-1H-spiro[naphthalene-2,3′-pyrrolidine]-7-carboxamide] |
| 100 to 500 | ≤ 100 | O=C(NO)c1ccc2c(c1)CC1(CC2)CCN(CC2CCCCC2)C1=O (centres unmarked) [Compound I-23, 1′-(cyclohexylmethyl)-N-hydroxy-2′-oxo-3,4-dihydro-1H-spiro[naphthalene-2,3′-pyrrolidine]-7-carboxamide] |
| > 500 | 100 to 500 | CC(C)N1CCC2(CCc3ccc(C(=O)NO)cc3C2)C1=O (centres unmarked) [Compound I-24, N-hydroxy-1′-isopropyl-2′-oxo-3,4-dihydro-1H-spiro[naphthalene-2, 3′-pyrrolidine]-7-carboxamide] |
| > 500 | ≤ 100 | CN(C)CCCN1CCC2(CCc3ccc(C(=O)NO)cc3C2)C1=O (centres unmarked) [Compound I-25, 1′-(3-(dimethylamino)propyl)-N-hydroxy-2′-oxo-3,4-dihydro-1H-spiro[naphthalene-2,3′-pyrrolidine]-7-carboxamide] |
| 100 to 500 | ≤ 100 | O=C(NO)c1ccc2c(c1)CC1(CC2)CCN(c2ccccc2)C1=O (centres unmarked) [Compound I-26, N-hydroxy-2′-oxo-1′-phenyl-3,4-dihydro-1H-spiro[naphthalene-2,3′-pyrrolidine]-7-carboxamide] |
| ≤ 100 | ≤ 100 | O=C(NO)c1ccc2c(c1)CC1(CC2)CCN(Cc2ccc(Cl)c(C(F)(F)F)c2)C1=O (centres unmarked) [Compound I-27, 1′-(4-chloro-3-(trifluoromethyl)benzyl)-N-hydroxy-2′-oxo-3,4-dihydro-1H-spiro[naphthalene-2,3′-pyrrolidine]-7-carboxamide] |
| 100 to 500 | ≤ 100 | O=C(NO)c1ccc2c(c1)C[C@@]1(CC2)CCN(c2cccnc2)C1=O [Compound I-28, (S)—N-hydroxy-2′-oxo-1′-(pyridin-3-yl)-3,4-dihydro-1H-spiro[naphthalene-2,3′-pyrrolidine]-7-carboxamide] |
| > 500 | ≤ 100 | O=C(NO)c1ccc2c(c1)C[C@]1(CC2)CCN(c2cccnc2)C1=O [Compound I-29, (R)—N-hydroxy-2′-oxo-1′-(pyridin-3-yl)-3,4-dihydro-1H-spiro[naphthalene-2,3′-pyrrolidine]-7-carboxamide] |
| > 500 | ≤ 100 | O=C(NO)c1ccc2c(c1)CC1(CC2)CCN(c2ccncc2)C1=O (centres unmarked) [Compound I-30, N-hydroxy-2′-oxo-1′-(pyridin-4-yl)-3,4-dihydro-1H-spiro[naphthalene-2,3′-pyrrolidine]-7-carboxamide] |
| > 500 | ≤ 100 | O=C(NO)c1ccc2c(c1)C[C@@]1(CC2)CCN(c2nc3ccccc3[nH]2)C1=O [Compound I-31, (S)-1′-(1H-benzo[d]imidazol-2-yl)-N-hydroxy-2′-oxo-3,4-dihydro-1H-spiro[naphthalene-2,3′-pyrrolidine]-7-carboxamide] |
| > 500 | ≤ 100 | O=C(NO)c1ccc2c(c1)C[C@]1(CC2)CCN(c2nc3ccccc3[nH]2)C1=O [Compound I-32, (R)-1′-(1H-benzo[d]imidazol-2-yl)-N-hydroxy-2′-oxo-3,4-dihydro-1H-spiro[naphthalene-2,3′-pyrrolidine]-7-carboxamide] |
| > 500 | ≤ 100 | COCCn1c(N2CC[C@@]3(CCc4ccc(C(=O)NO)cc4C3)C2=O)nc2ccccc21 [Compound I-33, (S)—N-hydroxy-1′-(1-(2-methoxyethyl)-1H-benzo[d]imidazol-2-yl)-2′-oxo-3,4-dihydro-1H-spiro[naphthalene-2,3′-pyrrolidine]-7-carboxamide] |
| ≤ 100 | ≤ 100 | COCCn1c(N2CC[C@]3(CCc4ccc(C(=O)NO)cc4C3)C2=O)nc2ccccc21 [Compound I-34, (R)—N-hydroxy-1′-(1-(2-methoxyethyl)-1H-benzo[d]imidazol-2-yl)-2′-oxo-3,4-dihydro-1H-spiro[naphthalene-2,3′-pyrrolidine]-7-carboxamide] |
| > 500 | ≤ 100 | O=C(NO)c1ccc2c(c1)C[C@@]1(CC2)CCN(Cc2ccccc2)C1=O [Compound I-35, (S)-1′-benzyl-N-hydroxy-2′-oxo-3,4-dihydro-1H-spiro[naphthalene-2,3′-pyrrolidine]-7-carboxamide] |
| 100 to 500 | ≤ 100 | O=C(NO)c1ccc2c(c1)C[C@]1(CC2)CCN(Cc2ccccc2)C1=O [Compound I-36, (R)-1′-benzyl-N-hydroxy-2′-oxo-3,4-dihydro-1H-spiro[naphthalene-2,3′-pyrrolidine]-7-carboxamide] |

— patent US9637453B2, “3-spirocyclic-6-hydroxamic acid tetralins as HDAC inhibitors” (Forma Therapeutics, Inc., priority 2015, dated 2017)
